Source: patent US7179829B2, “Substituted imidazolidines, process for their preparation, and their use as a medicament or diagnostic, and medicament comprising them” (Sanofi-aventis Deutschland GmbH, priority 2001, dated 2007)
Counter-ions that a name gives are not always drawn. Like-named read-outs stand apart in the source and are kept apart here.

Columns and labels:
rNHE3 = rNHE3 (Rattus norvegicus, UniProt P26433); experiment: recovery of intracellular pH (pHi) after acidification, BCECF fluorescence; format: cell-based
rNHE3, sequence (P26433 29-831): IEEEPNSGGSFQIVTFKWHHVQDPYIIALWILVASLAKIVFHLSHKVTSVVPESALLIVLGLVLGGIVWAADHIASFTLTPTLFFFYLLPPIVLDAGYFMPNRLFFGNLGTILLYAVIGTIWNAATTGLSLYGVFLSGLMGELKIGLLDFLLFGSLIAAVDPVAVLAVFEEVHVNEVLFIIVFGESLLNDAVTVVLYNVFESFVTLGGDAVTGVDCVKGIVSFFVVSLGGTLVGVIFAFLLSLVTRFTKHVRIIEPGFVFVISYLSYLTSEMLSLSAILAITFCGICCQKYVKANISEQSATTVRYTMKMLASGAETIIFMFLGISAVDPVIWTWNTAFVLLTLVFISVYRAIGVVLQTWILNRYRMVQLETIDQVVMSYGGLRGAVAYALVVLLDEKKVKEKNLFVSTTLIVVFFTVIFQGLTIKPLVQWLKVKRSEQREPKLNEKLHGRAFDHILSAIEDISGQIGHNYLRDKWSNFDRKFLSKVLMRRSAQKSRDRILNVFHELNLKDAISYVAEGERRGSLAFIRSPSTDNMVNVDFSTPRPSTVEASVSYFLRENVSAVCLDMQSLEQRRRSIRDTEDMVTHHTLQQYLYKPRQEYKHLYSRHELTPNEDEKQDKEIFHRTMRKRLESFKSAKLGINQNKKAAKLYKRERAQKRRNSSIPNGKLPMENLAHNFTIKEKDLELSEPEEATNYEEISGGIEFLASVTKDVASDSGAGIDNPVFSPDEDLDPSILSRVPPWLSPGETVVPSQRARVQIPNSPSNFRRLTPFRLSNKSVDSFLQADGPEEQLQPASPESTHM
Description: In this test, the recovery of the intracellular pH (pHi) after an acidification, which starts when the NHE is capable of functioning, even under bicarbonate-free conditions, was determined. For this purpose, the pHi was determined using the pH-sensitive fluorescent dye BCECF (calbiochem, the precursor BCECF-AM is employed). The cells were initially loaded with BCECF. The BCECF fluorescence was determined in a “ratio fluorescence spectrometer” (Photon Technology International, South Brunswick, N.J., USA) with excitation wavelengths of 505 and 440 nm and an emission wavelength of 535 nm, and was converted into the pHi using calibration plots. The cells were incubated in NH4Cl buffer (pH 7.4) (NH4Cl buffer: 115 mM NaCl, 20 mM NH4Cl, 5 mM KCl, 1 mM CaCl2, 1 mM MgSO4, 20 mM Hepes, 5 mM glucose, 1 mg/ml BSA; a pH of 7.4 is established with 1 M NaOH) even during the BCECF loading. The intracellular acidification was induced by addition of 975 μl of an NH4Cl-free buffer (see below) to 25 μl aliquots of the cells incubated in NH4Cl buffer. The subsequent rate of pH recovery was recorded in the case of NHE1 for two minutes, in the case of NHE2 for five minutes and in the case of NHE3 for three minutes. To calculate the inhibitory power of the tested substances, the cells were initially investigated in buffers in which complete or absolutely no pH recovery took place. For complete pH recovery (100%), the cells were incubated in Na^+-containing buffer (133.8 mM NaCl, 4.7 mM KCl, 1.25 mM CaCl2, 1.25 mM MgCl2, 0.97 mM Na2HPO4, 0.23 mM NaH2PO4, 5 mM Hepes, 5 mM glucose, a pH of 7.0 is established with 1 M NaOH). […] Recovery of the intracellular pH at the tested concentration of a substance was expressed as a percentage of the maximum recovery. Using the Sigma-Plot program, the IC50 value of the substance in question was calculated for the individual NHE subtypes using the percentages for pH recovery.

[1] = system: adrenergic alpha2 receptor; details: cited from earlier work
imidazoline I1 receptor = details: cited from earlier work
NHE3 = NHE3 (Oryctolagus cuniculus, UniProt P26432); details: cited from earlier work
NHE3, sequence (P26432 30-832): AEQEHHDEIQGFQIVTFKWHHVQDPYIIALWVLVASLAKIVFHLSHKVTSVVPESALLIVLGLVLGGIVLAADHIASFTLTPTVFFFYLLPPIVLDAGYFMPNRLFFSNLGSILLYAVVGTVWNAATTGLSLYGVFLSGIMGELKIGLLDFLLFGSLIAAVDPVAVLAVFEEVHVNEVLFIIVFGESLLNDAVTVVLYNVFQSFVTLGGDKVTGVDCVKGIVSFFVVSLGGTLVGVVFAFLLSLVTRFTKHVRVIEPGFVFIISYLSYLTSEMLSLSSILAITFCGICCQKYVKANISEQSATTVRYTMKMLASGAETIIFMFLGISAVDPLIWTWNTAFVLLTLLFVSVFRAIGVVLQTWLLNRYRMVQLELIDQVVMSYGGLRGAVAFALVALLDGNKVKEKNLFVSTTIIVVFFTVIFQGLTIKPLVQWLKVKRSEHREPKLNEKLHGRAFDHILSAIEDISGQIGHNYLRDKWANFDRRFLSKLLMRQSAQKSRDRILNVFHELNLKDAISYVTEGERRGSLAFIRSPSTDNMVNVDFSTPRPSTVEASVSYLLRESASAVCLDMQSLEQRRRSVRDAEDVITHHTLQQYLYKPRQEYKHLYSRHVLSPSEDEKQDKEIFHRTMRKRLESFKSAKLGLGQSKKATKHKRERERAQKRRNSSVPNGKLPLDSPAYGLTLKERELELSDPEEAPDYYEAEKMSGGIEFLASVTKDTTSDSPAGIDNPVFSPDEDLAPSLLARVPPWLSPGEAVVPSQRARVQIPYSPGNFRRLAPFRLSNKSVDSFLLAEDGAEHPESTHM

[2] = pH recovery recorded for three minutes, read-out: IC50 [μM], (rNHE3)

Work on `Cl.c1ccc(Oc2ccccc2N=C2N[C@@H]3CCCC[C@H]3N2)cc1` yielded a melting point of 110 °C.
With `CC(C)[C@@H]1NC(=Nc2c(Cl)cccc2Cl)N[C@H]1C(C)C` (racemic) [Example 7, trans-(2,6-Dichlorophenyl)-(4,5-diisopropylimidazolidin-2-ylidene)amine hydrochloride] the IC50 (rNHE3; [2]) was 1.1 µM.
`Cl.FC(F)(F)c1cccc(Cl)c1N=C1N[C@H]2CCCC[C@@H]2N1` (relative stereo) [Example 5, trans-(2-Chloro-6-trifluoromethylphenyl)-(octahydrobenzimidazol-2-ylidene)amine hydrochloride] gave a melting point of 160 to 165 °C and an IC50 (rNHE3; [2]) of 19 µM.
In the case of `Clc1cccc(Cl)c1N=C1NCCN1` [Clonidine], the “affinity for the adrenergic alpha2 receptor” value [1] is given as “high affinity” and the “affinity for the imidazoline I1 receptor” value (imidazoline I1 receptor) is given as “high affinity”.
`CC1NC(=Nc2c(Cl)cccc2Cl)NC1C` (centres unmarked) [Example 12, (2,6-dichlorophenyl)-(4,5-dimethylimidazolidin-2-ylidene)amine nitric acid salt] showed an IC50 (rNHE3) of roughly 3 µM.
In the case of `CC(C)[C@@H](CC[C@@H](C)[C@H]1CC[C@H]2[C@@H]3[C@H](O)C[C@H]4C[C@@H](NCCCNCCCCN)CC[C@]4(C)[C@H]3CC[C@]12C)OS(=O)(=O)O` [Squalamine], the “time to maximum potency as NHE3 inhibitor” value (NHE3) is given as “reaches its maximum potency only after one hour”.
